Data on six compounds can be found in patent US10231954B2, “Neurodegenerative therapies” (LYTIX BIOPHARMA AS, priority 2014, dated 2019).

Holding throughout (type): biochemical
For test [1], the target named is T1, TTK (Homo sapiens, UniProt P33981).
T1 sequence (P33981 1-857): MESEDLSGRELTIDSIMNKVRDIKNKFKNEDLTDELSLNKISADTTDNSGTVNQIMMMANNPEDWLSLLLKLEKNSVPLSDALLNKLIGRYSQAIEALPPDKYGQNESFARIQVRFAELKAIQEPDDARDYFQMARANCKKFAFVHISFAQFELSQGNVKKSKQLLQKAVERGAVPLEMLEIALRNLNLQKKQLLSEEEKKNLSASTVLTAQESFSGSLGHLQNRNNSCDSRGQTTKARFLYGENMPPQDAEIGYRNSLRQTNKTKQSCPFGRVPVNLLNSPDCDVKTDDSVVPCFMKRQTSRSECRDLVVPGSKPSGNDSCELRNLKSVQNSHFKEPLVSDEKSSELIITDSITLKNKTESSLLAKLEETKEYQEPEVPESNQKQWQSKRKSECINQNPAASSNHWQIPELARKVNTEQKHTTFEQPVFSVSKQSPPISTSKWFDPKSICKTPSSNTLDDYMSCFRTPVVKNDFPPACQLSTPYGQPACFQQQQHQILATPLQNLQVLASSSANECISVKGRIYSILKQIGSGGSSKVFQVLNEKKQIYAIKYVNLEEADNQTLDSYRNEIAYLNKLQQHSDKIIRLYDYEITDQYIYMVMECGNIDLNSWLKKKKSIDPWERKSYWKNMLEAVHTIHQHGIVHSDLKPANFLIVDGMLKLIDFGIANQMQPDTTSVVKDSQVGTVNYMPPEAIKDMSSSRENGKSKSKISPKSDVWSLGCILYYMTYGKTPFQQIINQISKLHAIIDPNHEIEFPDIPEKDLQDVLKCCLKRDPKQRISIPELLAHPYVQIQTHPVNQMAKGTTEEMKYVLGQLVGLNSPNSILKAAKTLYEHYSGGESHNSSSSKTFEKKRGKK
Description: Kinase profiling TTK. The conditions noted are these: 100 micromolar inhibitor concentration, 100 is no change; for remaining activity at 100 µM: read-out: residual kinase activity, TTK. From the text: (§1) Any value less that 25 is considered to be highly significant inhibition.

The subject of test [2] is VEG-FR. Description: Kinase profiling VEG-FR. The conditions noted are these: 100 micromolar inhibitor concentration; 100 is no change.
Source text: as §1

Test [3] addresses S6K1 (Homo sapiens, UniProt P23443). Kind of test: Kinase profiling S6K1. The conditions noted are these: 100 micromolar inhibitor concentration, 100 is no change; for remaining activity at 100 µM: read-out: residual kinase activity, S6K1.
Source text: as §1

In test [4] the target is HIPK2 (Homo sapiens, UniProt Q9H2X6). Kind of test: Kinase profiling HIPK2. The conditions noted are these: 100 micromolar inhibitor concentration, 100 is no change; for remaining activity at 100 µM: read-out: residual kinase activity, HIPK2.
Chain of HIPK2 (Q9H2X6 whole entry, species assumed): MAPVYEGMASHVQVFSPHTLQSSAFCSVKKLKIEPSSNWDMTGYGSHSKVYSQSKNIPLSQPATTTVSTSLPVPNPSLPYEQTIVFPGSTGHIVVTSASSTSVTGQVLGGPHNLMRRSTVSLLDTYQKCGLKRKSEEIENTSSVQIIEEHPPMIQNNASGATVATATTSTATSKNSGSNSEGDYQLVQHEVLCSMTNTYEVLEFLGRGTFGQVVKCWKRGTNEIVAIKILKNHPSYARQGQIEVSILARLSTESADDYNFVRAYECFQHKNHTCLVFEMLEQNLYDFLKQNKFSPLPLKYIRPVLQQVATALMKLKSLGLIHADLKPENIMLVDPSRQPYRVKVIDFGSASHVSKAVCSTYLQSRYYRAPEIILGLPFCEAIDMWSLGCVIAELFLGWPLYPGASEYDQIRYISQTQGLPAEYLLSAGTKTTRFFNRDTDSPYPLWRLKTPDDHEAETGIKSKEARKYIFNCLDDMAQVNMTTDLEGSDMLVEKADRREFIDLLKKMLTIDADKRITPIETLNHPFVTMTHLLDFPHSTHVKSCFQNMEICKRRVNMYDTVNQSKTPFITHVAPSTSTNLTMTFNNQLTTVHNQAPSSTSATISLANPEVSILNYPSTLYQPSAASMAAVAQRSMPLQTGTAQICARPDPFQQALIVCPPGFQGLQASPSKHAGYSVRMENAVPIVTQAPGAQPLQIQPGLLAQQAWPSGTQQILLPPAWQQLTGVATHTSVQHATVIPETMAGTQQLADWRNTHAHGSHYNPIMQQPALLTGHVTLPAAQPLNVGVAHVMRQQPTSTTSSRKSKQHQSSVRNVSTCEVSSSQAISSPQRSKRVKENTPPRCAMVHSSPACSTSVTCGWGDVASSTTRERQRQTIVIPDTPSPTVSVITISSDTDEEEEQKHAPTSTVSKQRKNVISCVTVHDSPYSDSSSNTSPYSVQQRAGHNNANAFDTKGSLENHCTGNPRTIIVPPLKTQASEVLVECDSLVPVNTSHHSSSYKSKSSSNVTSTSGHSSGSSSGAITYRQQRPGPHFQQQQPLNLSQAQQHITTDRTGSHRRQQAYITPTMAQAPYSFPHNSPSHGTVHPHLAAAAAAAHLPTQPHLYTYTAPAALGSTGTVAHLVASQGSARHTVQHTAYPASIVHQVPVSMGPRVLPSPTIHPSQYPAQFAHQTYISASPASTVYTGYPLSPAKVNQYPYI
Source text: as §1

The target in test [5] is T2, p38d MAPK (Homo sapiens, UniProt O15264).
T2 sequence (O15264 1-365): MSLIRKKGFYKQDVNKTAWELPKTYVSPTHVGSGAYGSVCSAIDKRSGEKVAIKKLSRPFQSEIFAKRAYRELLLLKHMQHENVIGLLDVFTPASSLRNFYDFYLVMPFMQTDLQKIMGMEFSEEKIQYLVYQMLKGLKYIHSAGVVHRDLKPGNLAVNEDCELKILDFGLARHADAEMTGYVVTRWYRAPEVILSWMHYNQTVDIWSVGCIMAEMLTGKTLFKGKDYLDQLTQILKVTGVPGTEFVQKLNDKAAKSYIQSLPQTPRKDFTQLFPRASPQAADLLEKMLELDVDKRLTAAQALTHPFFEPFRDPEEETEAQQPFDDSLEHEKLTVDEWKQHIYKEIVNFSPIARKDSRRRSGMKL
Kind of test: Kinase profiling p38d MAPK. The conditions noted are these: 100 micromolar inhibitor concentration, 100 is no change; for remaining activity at 100 µM: read-out: residual kinase activity, p38d MAPK.
Source text: as §1

The target in test [6] is TrkA (Homo sapiens, UniProt P04629). Description: Kinase profiling TrkA. As to conditions: 100 micromolar inhibitor concentration, 100 is no change; for remaining activity at 100 µM: read-out: residual kinase activity, TrkA.
Chain of TrkA (P04629 33-796, species assumed): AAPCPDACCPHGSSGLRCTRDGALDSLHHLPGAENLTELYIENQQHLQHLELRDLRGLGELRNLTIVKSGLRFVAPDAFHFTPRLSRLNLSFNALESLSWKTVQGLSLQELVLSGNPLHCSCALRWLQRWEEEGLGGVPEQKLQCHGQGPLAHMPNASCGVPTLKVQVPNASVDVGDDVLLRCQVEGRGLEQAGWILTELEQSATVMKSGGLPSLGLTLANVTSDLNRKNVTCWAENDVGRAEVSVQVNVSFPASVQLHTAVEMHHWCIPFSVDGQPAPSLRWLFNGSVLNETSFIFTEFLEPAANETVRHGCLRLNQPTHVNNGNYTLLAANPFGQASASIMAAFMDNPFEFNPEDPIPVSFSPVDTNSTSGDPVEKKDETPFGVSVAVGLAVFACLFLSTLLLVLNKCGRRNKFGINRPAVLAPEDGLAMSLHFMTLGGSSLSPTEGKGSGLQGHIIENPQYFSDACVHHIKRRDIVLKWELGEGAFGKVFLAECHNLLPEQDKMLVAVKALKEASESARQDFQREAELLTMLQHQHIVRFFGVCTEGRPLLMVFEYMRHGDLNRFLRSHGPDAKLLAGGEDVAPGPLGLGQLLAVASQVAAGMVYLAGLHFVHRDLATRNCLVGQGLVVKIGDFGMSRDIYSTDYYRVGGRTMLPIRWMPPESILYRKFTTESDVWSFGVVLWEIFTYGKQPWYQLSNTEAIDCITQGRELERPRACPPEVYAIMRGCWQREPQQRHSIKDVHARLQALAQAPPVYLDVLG
Source text: as §1

Test [7] addresses T3, p38g MAPK (Homo sapiens, UniProt P53778).
T3 sequence (P53778 1-367): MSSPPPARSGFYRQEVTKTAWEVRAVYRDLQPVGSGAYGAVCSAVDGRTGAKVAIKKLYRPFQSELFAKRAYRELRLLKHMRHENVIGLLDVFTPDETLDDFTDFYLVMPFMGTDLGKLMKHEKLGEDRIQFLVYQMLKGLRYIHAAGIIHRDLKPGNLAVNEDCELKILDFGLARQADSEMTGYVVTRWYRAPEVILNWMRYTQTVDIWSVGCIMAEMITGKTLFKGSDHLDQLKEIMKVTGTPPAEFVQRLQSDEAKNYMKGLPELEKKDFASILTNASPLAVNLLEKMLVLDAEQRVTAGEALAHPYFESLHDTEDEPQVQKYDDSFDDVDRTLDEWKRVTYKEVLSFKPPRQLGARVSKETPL
Description: Kinase profiling p38g MAPK. The conditions noted are these: 100 micromolar inhibitor concentration, 100 is no change; for remaining activity at 100 µM: read-out: residual kinase activity, p38g MAPK.
Source text: as §1

The target in test [8] is Src (Homo sapiens, UniProt P12931). Description: Kinase profiling Src. The conditions noted are these: 100 micromolar inhibitor concentration, 100 is no change; for remaining activity at 100 µM: read-out: residual kinase activity, Src.
Chain of Src (P12931 whole entry, species assumed): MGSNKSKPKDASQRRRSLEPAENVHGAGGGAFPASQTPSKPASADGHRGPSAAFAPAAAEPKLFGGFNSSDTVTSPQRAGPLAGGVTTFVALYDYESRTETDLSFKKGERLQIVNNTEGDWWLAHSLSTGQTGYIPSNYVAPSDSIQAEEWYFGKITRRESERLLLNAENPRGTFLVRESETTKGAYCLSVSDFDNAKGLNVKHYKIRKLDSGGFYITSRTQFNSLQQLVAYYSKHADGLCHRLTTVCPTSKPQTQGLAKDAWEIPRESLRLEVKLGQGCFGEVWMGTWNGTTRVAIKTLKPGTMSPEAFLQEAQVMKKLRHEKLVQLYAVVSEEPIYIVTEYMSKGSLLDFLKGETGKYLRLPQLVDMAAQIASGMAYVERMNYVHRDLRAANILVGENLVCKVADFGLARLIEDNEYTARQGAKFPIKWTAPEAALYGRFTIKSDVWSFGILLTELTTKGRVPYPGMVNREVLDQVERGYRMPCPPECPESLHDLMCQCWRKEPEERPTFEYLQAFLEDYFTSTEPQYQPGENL
Source text: as §1

Test [9] deals with T4, IRAK4 (Homo sapiens, UniProt Q9NWZ3).
T4 sequence (Q9NWZ3 1-460): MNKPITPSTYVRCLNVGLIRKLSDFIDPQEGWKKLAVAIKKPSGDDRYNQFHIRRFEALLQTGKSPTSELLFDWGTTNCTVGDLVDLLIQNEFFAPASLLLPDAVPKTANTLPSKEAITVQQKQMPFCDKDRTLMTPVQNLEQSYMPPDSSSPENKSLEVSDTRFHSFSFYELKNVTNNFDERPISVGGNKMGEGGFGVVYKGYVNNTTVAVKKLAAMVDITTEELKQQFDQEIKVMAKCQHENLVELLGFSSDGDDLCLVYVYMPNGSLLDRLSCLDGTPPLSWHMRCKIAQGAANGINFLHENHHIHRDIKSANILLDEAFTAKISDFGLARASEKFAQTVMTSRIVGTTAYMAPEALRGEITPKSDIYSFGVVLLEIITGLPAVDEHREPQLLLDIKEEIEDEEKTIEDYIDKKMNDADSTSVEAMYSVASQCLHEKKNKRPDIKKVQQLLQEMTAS
Kind of test: Kinase profiling IRAK4. The conditions noted are these: 100 micromolar inhibitor concentration, 100 is no change; for remaining activity at 100 µM: read-out: residual kinase activity, IRAK4.
Source text: as §1

The target in test [10] is SmMLCK (Homo sapiens, UniProt Q15746). Kind of test: Kinase profiling SmMLCK. As to conditions: 100 micromolar inhibitor concentration, 100 is no change; for remaining activity at 100 µM: read-out: residual kinase activity, SmMLCK.
Chain of SmMLCK (Q15746 923-1914): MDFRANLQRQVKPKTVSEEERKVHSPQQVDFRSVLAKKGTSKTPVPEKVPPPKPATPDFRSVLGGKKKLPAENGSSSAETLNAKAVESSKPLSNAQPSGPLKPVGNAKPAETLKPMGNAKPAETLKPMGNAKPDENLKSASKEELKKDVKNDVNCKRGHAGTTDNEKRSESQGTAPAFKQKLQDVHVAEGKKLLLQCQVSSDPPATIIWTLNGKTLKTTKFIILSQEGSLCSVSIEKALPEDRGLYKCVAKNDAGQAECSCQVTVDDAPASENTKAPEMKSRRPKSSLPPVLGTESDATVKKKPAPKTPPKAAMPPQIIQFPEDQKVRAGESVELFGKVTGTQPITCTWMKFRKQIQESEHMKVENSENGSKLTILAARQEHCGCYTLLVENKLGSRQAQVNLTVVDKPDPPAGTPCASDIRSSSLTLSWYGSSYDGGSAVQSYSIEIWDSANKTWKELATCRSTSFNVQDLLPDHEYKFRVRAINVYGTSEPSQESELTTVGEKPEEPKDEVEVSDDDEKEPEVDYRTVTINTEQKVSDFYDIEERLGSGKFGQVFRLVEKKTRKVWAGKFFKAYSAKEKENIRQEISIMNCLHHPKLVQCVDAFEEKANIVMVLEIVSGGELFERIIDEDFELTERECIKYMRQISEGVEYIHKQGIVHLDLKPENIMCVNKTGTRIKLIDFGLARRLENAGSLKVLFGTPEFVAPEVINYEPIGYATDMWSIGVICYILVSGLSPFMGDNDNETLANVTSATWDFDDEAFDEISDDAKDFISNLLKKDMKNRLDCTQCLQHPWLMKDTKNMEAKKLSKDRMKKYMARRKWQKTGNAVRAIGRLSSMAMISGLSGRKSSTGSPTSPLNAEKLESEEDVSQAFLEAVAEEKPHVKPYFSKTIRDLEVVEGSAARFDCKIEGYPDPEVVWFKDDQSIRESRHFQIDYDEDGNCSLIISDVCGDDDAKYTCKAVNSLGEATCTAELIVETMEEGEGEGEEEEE
Test [11] deals with JNK3 (Homo sapiens, UniProt P53779). Description: Kinase profiling JNK3. As to conditions: 100 micromolar inhibitor concentration, 100 is no change; for remaining activity at 100 µM: read-out: residual kinase activity, JNK3.
Chain of JNK3 (P53779 whole entry, species assumed): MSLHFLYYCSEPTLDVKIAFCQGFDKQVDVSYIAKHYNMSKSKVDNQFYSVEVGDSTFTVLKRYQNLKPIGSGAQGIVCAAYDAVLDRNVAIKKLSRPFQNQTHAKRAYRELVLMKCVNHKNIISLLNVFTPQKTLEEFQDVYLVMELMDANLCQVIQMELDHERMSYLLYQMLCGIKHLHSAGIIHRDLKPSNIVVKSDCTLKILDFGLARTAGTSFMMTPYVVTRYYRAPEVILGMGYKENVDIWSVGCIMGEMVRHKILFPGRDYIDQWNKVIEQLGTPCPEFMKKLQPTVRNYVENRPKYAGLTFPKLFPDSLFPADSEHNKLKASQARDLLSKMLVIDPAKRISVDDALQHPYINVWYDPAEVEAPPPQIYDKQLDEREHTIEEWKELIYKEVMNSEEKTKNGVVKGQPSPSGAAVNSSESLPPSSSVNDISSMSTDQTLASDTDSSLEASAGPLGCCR
Source text: as §1

Chain of S6K1 (P23443 whole entry, species assumed): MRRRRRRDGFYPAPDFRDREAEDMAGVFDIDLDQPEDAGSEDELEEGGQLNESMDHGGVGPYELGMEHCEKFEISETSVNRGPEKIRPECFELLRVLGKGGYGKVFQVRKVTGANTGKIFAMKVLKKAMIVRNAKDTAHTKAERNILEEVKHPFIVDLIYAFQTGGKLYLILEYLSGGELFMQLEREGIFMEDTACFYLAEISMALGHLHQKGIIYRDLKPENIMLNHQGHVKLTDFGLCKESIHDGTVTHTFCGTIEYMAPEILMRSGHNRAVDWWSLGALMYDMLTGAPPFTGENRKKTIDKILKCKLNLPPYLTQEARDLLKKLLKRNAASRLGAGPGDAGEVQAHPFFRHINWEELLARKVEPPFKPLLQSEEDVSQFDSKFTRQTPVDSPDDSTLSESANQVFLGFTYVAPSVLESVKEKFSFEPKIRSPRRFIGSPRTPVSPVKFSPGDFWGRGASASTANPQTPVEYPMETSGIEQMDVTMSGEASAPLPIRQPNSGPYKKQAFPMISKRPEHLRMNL

For the compound `O=C(Nc1nc2ccc(O)cc2s1)c1ccccc1` [Compound 03-60], in test [1], the “residual kinase activity, TTK” value is given as 19. Also, in test [2], the “residual kinase activity, VEG-FR” value came to 5. In addition, in test [3], the “residual kinase activity, S6K1” value amounted to 11. In [4], the “residual kinase activity, HIPK2” value is listed as 8. The “residual kinase activity, p38d MAPK” value in [5] is reported as 75. Also, in [6], the “residual kinase activity, TrkA” value amounted to 23. In addition, the “residual kinase activity, p38g MAPK” value in [7] amounted to 58. The “residual kinase activity, Src” value in test [8] came to 33. For the same compound, the “residual kinase activity, IRAK4” value in [9] is on record as 22. In [10], the “residual kinase activity, SmMLCK” value came out at 15. In addition, in [11], the “residual kinase activity, JNK3” value amounted to 48.
As to `CC(=O)Nc1nc2cc(C(F)(F)F)ccc2s1` [Compound 03-73], the remaining activity at 100 µM was 86% in test [1]; 77% in test [3]; 51% in test [4]; 52% in test [5]; 74% in [6]; 93% in test [7]. Further, the remaining activity at 100 µM was 74% in test [8], 60% in test [9], 71% in test [10] and 83% in test [11]. In addition, the “residual kinase activity, VEG-FR” value in [2] worked out at 33.
On to `CC(=O)Nc1nc2cc(C)ccc2s1` [Compound 03-76], for which the “residual kinase activity, TTK” value in test [1] came to 49. Moreover, the “residual kinase activity, VEG-FR” value in test [2] is given as 50. In [3], the “residual kinase activity, S6K1” value is 77. Besides, in test [4], the “residual kinase activity, HIPK2” value was 51. In addition, in test [5], the “residual kinase activity, p38d MAPK” value worked out at 85. In test [6], the “residual kinase activity, TrkA” value is 56. For the same compound, the “residual kinase activity, p38g MAPK” value in test [7] was determined as 92. Also, the “residual kinase activity, Src” value in test [8] came to 79. The “residual kinase activity, IRAK4” value in test [9] was found to be 51. In test [10], the “residual kinase activity, SmMLCK” value stood at 62. Further, in test [11], the “residual kinase activity, JNK3” value is 76.
On to `CC(=O)Nc1nc2cc(F)ccc2s1` [Compound 03-77], for which the remaining activity at 100 µM was found to be 64% in [1]; 48% in [3]; 22% in [4]; 76% in test [5]; 59% in test [6]; 77% in [7]. The remaining activity at 100 µM in test [8] was 80%; in test [9], 43%; in test [10] it was 66%; in test [11] it was 68%. In addition, the “residual kinase activity, VEG-FR” value in test [2] is recorded as 48.
Turning to `O=C(Nc1nc2ccc(O)cc2s1)c1ccncc1` [Compound 08-42], the “residual kinase activity, TTK” value in test [1] is recorded as 32. For the same compound, the “residual kinase activity, VEG-FR” value in [2] is given as 20. Also, the “residual kinase activity, S6K1” value in [3] is 38. Besides, the “residual kinase activity, HIPK2” value in [4] came to 23. Further, the “residual kinase activity, p38d MAPK” value in test [5] was 65. In addition, in test [6], the “residual kinase activity, TrkA” value was found to be 81. Further, the “residual kinase activity, p38g MAPK” value in test [7] is 87. The “residual kinase activity, Src” value in test [8] is listed as 62. Besides, the “residual kinase activity, IRAK4” value in test [9] worked out at 42. The “residual kinase activity, SmMLCK” value in test [10] was 33. Also, the “residual kinase activity, JNK3” value in test [11] was found to be 65.
`O=C(Nc1nc2ccc(O)cc2s1)c1cccnc1` [Compound 08-44]: the “residual kinase activity, TTK” value in test [1] is on record as 22. Besides, in [2], the “residual kinase activity, VEG-FR” value is reported as 21. The “residual kinase activity, S6K1” value in test [3] is 17. Also, in test [4], the “residual kinase activity, HIPK2” value was 19. Further, in test [5], the “residual kinase activity, p38d MAPK” value is given as 62. Also, in [6], the “residual kinase activity, TrkA” value is listed as 71. Also, the “residual kinase activity, p38g MAPK” value in [7] turned out to be 77. The “residual kinase activity, Src” value in [8] is 72. The “residual kinase activity, IRAK4” value in test [9] came out at 32. Also, in test [10], the “residual kinase activity, SmMLCK” value stood at 19. Besides, the “residual kinase activity, JNK3” value in [11] is reported as 64.
